Assay results reported in patent US20240239804A1, “FUROINDAZOLE DERIVATIVES AS ANTAGONISTS OR INHIBITORS OF GPR84” (Bayer Aktiengesellschaft, priority 2021, published 2024).

Molecular target: T1, human GPR84 receptor (Homo sapiens, UniProt Q9NQS5)
T1 construct: frozen aliquots prepared by acCELLerate; host or cells: CHO-K1
Assay: cAMP HTRF assay for identification of cellular GPR84 antagonists
Type: cell-based
Conditions: CHO-K1 cells stably expressing human GPR84; Forskolin plus agonist 6-OAU; cAMP HTRF readout; average or median values
Summary of the method: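 CHO-K1 cells stably expressing human GPR84, preincubated with compound 30 min at room temperature, then stimulated 30 min with 6-OAU (EC80) plus forskolin (EC90). cAMP measured by HTRF 665/620 nm ratio after 60 min lysis; 11 concentrations from 20 μM to 0.07 nM in duplicate, IC50 by 4-parameter fit.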

T1 sequence (Q9NQS5 whole entry): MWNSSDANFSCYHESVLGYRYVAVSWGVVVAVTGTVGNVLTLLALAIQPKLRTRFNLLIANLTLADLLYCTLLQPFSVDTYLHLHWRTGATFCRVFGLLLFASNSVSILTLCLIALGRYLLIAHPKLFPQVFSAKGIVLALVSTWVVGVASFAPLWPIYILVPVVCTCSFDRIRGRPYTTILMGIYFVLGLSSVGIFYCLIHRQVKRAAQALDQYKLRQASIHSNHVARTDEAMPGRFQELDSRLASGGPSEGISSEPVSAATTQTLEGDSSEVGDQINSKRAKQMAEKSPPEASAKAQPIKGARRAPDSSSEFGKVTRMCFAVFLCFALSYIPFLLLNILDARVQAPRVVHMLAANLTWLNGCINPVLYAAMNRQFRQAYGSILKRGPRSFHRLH

IC50 [µM]	SMILES
17.1	Cc1c(C(=O)NC(C)(C)C#N)oc2c1-c1nn(Cc3ccc(Cl)cc3)cc1CC2 [Example 86, 2-[(4-chlorophenyl)methyl]-N-(2-cyanopropan-2-yl)-8-methyl-4,5-dihydro-2H-furo[2,3-g]indazole-7-carboxamide]
17.3	Cc1c(C(=O)N2CCCC(C(N)=O)C2)oc2c1-c1nn(Cc3ccc(Cl)cc3)cc1CC2 (stereo not shown) [Example 88, 1-{2-[(4-chlorophenyl)methyl]-8-methyl-4,5-dihydro-2H-furo[2,3-g]indazole-7-carbonyl}piperidine-3-carboxamide]
9.4	Cc1c(C(=O)N(C)Cc2cccnc2)oc2c1-c1nn(Cc3ccc(Cl)cc3)cc1CC2 [Example 69, 2-[(4-chlorophenyl)methyl]-N,8-dimethyl-N-[(pyridin-3-yl)methyl]-4,5-dihydro-2H-furo[2,3-g]indazole-7-carboxamide]
5.28	Cc1c(C(=O)NCC2CCS(=O)(=O)C2)oc2c1-c1nn(Cc3ccc(Cl)cc3)cc1CC2 (stereo not shown) [Example 59, 2-(4-chlorobenzyl)-N-[(1,1-dioxidotetrahydrothiophen-3-yl)methyl]-8-methyl-4,5-dihydro-2H-furo[2,3-g]indazole-7-carboxamide]
≥ 20	Cc1c(C(=O)N2CCC[C@H]2C(N)=O)oc2c1-c1nn(Cc3ccc(Cl)cc3)cc1CC2 [Example 91, 1-{2-[(4-chlorophenyl)methyl]-8-methyl-4,5-dihydro-2H-furo[2,3-g]indazole-7-carbonyl}-L-prolinamide]
16.1	Cc1c(C(=O)NC2CCC(=O)NC2)oc2c1-c1nn(Cc3ccc(Cl)cc3)cc1CC2 (stereo not shown) [Example 81, 2-[(4-chlorophenyl)methyl]-8-methyl-N-(6-oxopiperidin-3-yl)-4,5-dihydro-2H-furo[2,3-g]indazole-7-carboxamide]
16.4	Cc1c(C(=O)N2CCC[C@@H]2C(N)=O)oc2c1-c1nn(Cc3ccc(Cl)cc3)cc1CC2 [Example 82, 1-{2-[(4-chlorophenyl)methyl]-8-methyl-4,5-dihydro-2H-furo[2,3-g]indazole-7-carbonyl}-D-prolinamide]
15.9	COCCN(C)C(=O)c1oc2c(c1C)-c1nn(Cc3ccc(Cl)cc3)cc1CC2 [Example 80, 2-[(4-chlorophenyl)methyl]-N-(2-methoxyethyl)-N,8-dimethyl-4,5-dihydro-2H-furo[2,3-g]indazole-7-carboxamide]
0.75	Cc1c(C(=O)NC[C@@H]2CCCO2)oc2c1-c1nn(C(C)c3ccccc3F)cc1CC2 (mixture of isomers) [Example 95, 2-[(1RS)-1-(2-fluorophenyl)ethyl]-8-methyl-N-[(2S)-tetrahydrofuran-2-ylmethyl]-4,5-dihydro-2H-furo[2,3-g]indazole-7-carboxamide]
6.1	CC(=O)N1CCN(C(=O)c2oc3c(c2C)-c2nn(Cc4ccc(Cl)cc4)cc2CC3)CC1 [Example 62, 1-(4-{2-[(4-chlorophenyl)methyl]-8-methyl-4,5-dihydro-2H-furo[2,3-g]indazole-7-carbonyl}piperazin-1-yl)ethan-1-one]

Continued, compound first:

SMILES	IC50 [µM]
Cc1c(C(=O)NCCO)oc2c1-c1nn(Cc3ccc(Cl)cc3)cc1CC2 [Example 58, 2-[(4-chlorophenyl)methyl]-N-(2-hydroxyethyl)-8-methyl-4,5-dihydro-2H-furo[2,3-g]indazole-7-carboxamide]	5.22
Cc1c(C(=O)NCCN2CCCCC2)oc2c1-c1nn(Cc3cccc(Cl)c3)cc1CC2 [Example 19, 2-[(3-chlorophenyl)methyl]-8-methyl-N-[2-(piperidin-1-yl)ethyl]-4,5-dihydro-2H-furo[2,3-g]indazole-7-carboxamide]	0.78
Cc1c(C(=O)NCCN2CCCC2)oc2c1-c1nn(Cc3ccc(Cl)cc3)cc1CC2 [Example 24, 2-[(4-chlorophenyl)methyl]-8-methyl-N-[2-(pyrrolidin-1-yl)ethyl]-4,5-dihydro-2H-furo[2,3-g]indazole-7-carboxamide]	1.05
Cc1c(C(=O)NCC(=O)N2CCOCC2)oc2c1-c1nn(Cc3ccc(Cl)cc3)cc1CC2 [Example 35, 2-[(4-chlorophenyl)methyl]-8-methyl-N-[2-(morpholin-4-yl)-2-oxoethyl]-4,5-dihydro-2H-furo[2,3-g]indazole-7-carboxamide]	3
Cc1ccccc1Cn1cc2c(n1)-c1c(oc(C(=O)NCC3CCCN3)c1C)CC2 (single isomer, unassigned) [Example 7-1]	0.72
Cc1ccc(CNC(=O)c2oc3c(c2C)-c2nn(Cc4ccccc4Cl)cc2CC3)cc1 [Example 10, 2-[(2-chlorophenyl)methyl]-8-methyl-N-[(4-methylphenyl)methyl]-4,5-dihydro-2H-furo[2,3-g]indazole-7-carboxamide]	0.042
Cc1c(C(=O)NCC2CCCO2)oc2c1-c1nn(Cc3cccc(Cl)c3)cc1CC2 (single isomer, unassigned) [Example 15-2]	0.55
Cc1ccccc1Cn1cc2c(n1)-c1c(oc(C(=O)NCC3CCCN3)c1C)CC2 (single isomer, unassigned) [Example 7-2]	0.63
Cc1ccc(Cn2cc3c(n2)-c2c(oc(C(=O)NC[C@@H]4CCCO4)c2C)CC3)cc1 [Example 1, 8-methyl-2-[(4-methylphenyl)methyl]-N-[(2S)-tetrahydrofuran-2-ylmethyl]-4,5-dihydro-2H-furo[2,3-g]indazole-7-carboxamide]	0.018
Cc1ccccc1Cn1cc2c(n1)-c1c(oc(C(=O)NC[C@@H]3COCCO3)c1C)CC2 [Example 5, N-{[(2R)-1,4-dioxan-2-yl]methyl}-8-methyl-2-[(2-methylphenyl)methyl]-4,5-dihydro-2H-furo[2,3-g]indazole-7-carboxamide]	0.009
Cc1ccccc1Cn1cc2c(n1)-c1c(oc(C(=O)NC[C@@H]3CCCO3)c1C)CC2 [Example 4, 8-methyl-2-[(2-methylphenyl)methyl]-N-[(2S)-tetrahydrofuran-2-ylmethyl]-4,5-dihydro-2H-furo[2,3-g]indazole-7-carboxamide]	0.023
Cc1c(C(=O)NCC2CCCO2)oc2c1-c1nn(Cc3ccc(Cl)cc3)cc1CC2 (single isomer, unassigned) [Example 21-1]	0.52
Cc1c(C(=O)NCC2CCCO2)oc2c1-c1nn(Cc3cccc(Cl)c3)cc1CC2 (single isomer, unassigned) [Example 15-1]	0.088
Cc1c(C(=O)NCc2ccn(C)n2)oc2c1-c1nn(Cc3ccc(Cl)cc3)cc1CC2 [Example 37, 2-[(4-chlorophenyl)methyl]-8-methyl-N-[(1-methyl-1H-pyrazol-3-yl)methyl]-4,5-dihydro-2H-furo[2,3-g]indazole-7-carboxamide]	0.18
COCCNC(=O)CNC(=O)c1oc2c(c1C)-c1nn(Cc3ccc(Cl)cc3)cc1CC2 [Example 32, 2-[(4-chlorophenyl)methyl]-N-{2-[(2-methoxyethyl)amino]-2-oxoethyl}-8-methyl-4,5-dihydro-2H-furo[2,3-g]indazole-7-carboxamide]	2.46
